Like-named read-outs stand apart in the source and are kept apart here.
Columns and labels:
HCMV AD169 (WT) = assay: qPCR-based replication assay, parental HCMV AD169 (WT) in HFF-UL50 cells; format: cell-based
Method: (§1) The viral genome copy number in cell culture supernatants was determined by IE1-specific quantitative real-time PCR (qPCR) as described previously. […] For the qPCR reactions, aliquots of infected-cell supernatants were incubated with proteinase K (Sigma-Aldrich, St. Louis, MO, USA) at 56 °C for 1 h in order to release the viral DNA. After a denaturation step at 95 °C for 5 min, the DNA samples were optionally stored at 4 °C or directly used for qPCR, as performed in a 25 µL reaction mixture containing 5 µL of either the sample or the standard DNA solution. Additional components of the reaction mixture were 12.5 µL 2× TaqMan PCR Mastermix (Applied Biosystems, Waltham, MA, USA), 7.5 pmol of each primer (5′-[…]-3′) and 5′-[…]-3′) and 5 pmol probe directed against the HCMV MIE region exon 4 (5′-[…]-3′), which was labeled with 6-carboxyfluorescein reporter dye and 6-carboxytetramethylrhodamine quencher dye. The DNA standard for quantification was prepared by serial dilutions of an MIE-inserted plasmid. The thermal cycling conditions consisted of two initial steps of 2 min at 50 °C and 10 min at 95 °C followed by 40 amplification cycles (15 s at 95 °C, 1 min 60 °C). Reactions were performed with an ABI Prism 7700 sequence detector (Applied Biosystems, Waltham, MA, USA).
(§2) To this end, the conditional expression system of the HCMV ΔUL50-ΣUL53 recombinant was applied. […] The relative differences in viral replication efficiencies, under these four chosen conditions, were normalized by two means, namely, by using the same conditions in the DMSO control panel (±S, ±D) and by evaluating viral replication in percentage values (% DMSO).
HFF-UL50 cells were cultivated in 96-well plates and infected with (A,B) HCMV ∆UL50-ΣUL53, with (C) parental HCMV AD169 (WT), using adjusted genome copy numbers, or remained uninfected (mock). Viral input was adjusted to 1 × 10^5 copies per well. […] Dox was refreshed every second day. At 14 d p.i., supernatants were harvested, and viral genome equivalents were determined using HCMV IE1-specific qPCR. […]

HCMV ∆UL50-ΣUL53 = assay: qPCR-based replication assay, HCMV ∆UL50-ΣUL53 in HFF-UL50 cells; format: cell-based
Method: as §1, §2
HFF-UL50 cells were cultivated in 96-well plates and infected with (A,B) HCMV ∆UL50-ΣUL53, with (C) parental HCMV AD169 (WT), using adjusted genome copy numbers, or remained uninfected (mock). Viral input was adjusted to 1 × 10^5 copies per well. […] Dox was refreshed every second day. At 14 d p.i., supernatants were harvested, and viral genome equivalents were determined using HCMV IE1-specific qPCR. Each condition was examined in biological quadruplicates; mean values ± SDs are shown. […] Statistical analysis was performed using ordinary one-way ANOVA and post hoc Tukey testing; **** p ≤ 0.0001; n.s., not significant.

[1] = target: T1, HSV-1 HA-UL34 + Flag-UL31 (Human herpesvirus 1, UniProt P10215+P10218); assay: Confocal imaging of core NEC localization in cotransfected HeLa cells, HSV-1; format: cell-based; settings: 4 µM, 3 d p.t.
T1 construct: expressed in transfected cells; host or cells: HeLa
Method: (§3) HFF or HFF-UL50 cells, either Dox-induced or uninduced, were seeded in 6-well plates with a density of 2 × 10^5 cells per well, grown on coverslips and infected with HCMV AD169 or AD169 ∆UL50-ΣUL53. For infection experiments with the recombinant virus, different Shield-1 and Dox conditions were analyzed. Antivirals were added post-infection as described for the experiments. For transfection experiments, HeLa cells were seeded on coverslips in 6-well plates with a density of 3.25 × 10^5 cells per well for cotransfection with the indicated NEC expression plasmids (HSV-1 HA-UL34 + Flag-UL31, HCMV pUL50-HA + pUL53-Flag and EBV HA-BFRF1 + Flag-BFLF2). At indicated time points after virus infection, or 3 days post-transfection, cells were fixed, applied for IF staining as described previously and analyzed using a TCS SP5 confocal laser-scanning microscope with Leica LAS AF software (Leica Microsystems, Wetzlar, Germany). […] The device features a Leica photomultiplier tube (PMT) and a hybrid detector (HyD). Images were further processed using Photoshop CS5 (Adobe Inc., San José, CA, USA). […] Microscopic counting was performed for quantitation of colocalization patterns of two different proteins, as achieved by counting 50 cells per biological triplicate. […]

[2] = target: T2, EBV HA-BFRF1 + Flag-BFLF2 (Epstein-Barr virus, UniProt P03185+P0CK47); assay: Confocal imaging of core NEC localization in cotransfected HeLa cells, EBV; format: cell-based; settings: 4 µM, 3 d p.t.
T2 construct: expressed in transfected cells; host or cells: HeLa
Method: as §3

[3] = target: T3, pUL97–cyclin H interaction (LgBiT::UL97(231–280)-Flag + SmBiT::CycH-HA) (UniProt P16788+P51946); assay: NanoBiT specificity control, pUL97–cyclin H; format: cell-based, HCMV; settings: ibrutinib 3.75–30 µM
T3 construct: open reading frames coding for HCMV pUL97 (amino acids 231–280); expressed in transfected cells; host or cells: 293T
T3 sequence (P16788 231-280 limits assumed): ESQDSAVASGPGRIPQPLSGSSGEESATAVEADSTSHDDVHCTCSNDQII
T3 sequence (P51946 1-323): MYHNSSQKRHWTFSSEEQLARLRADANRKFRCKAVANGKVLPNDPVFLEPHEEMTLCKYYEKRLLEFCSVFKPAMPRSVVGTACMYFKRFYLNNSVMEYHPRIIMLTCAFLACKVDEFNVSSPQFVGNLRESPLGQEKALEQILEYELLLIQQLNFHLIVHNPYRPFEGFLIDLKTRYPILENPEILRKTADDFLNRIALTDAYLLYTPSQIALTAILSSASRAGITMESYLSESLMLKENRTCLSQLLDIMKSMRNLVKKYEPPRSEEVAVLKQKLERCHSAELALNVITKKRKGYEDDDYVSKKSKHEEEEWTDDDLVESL

[4] = target: T4, pUL50–pUL53 interaction (LgBiT::UL53(1–87)-Flag + SmBiT::UL50-HA) (Human cytomegalovirus, UniProt P16791); format: cell-based; settings: 293T cells, 5×, 1× or 0.2× anti-HCMV EC50 levels, truncated LgBiT::UL53(1–87)-Flag
T4 construct: expressed in transfected cells; host or cells: 293T
T4 sequence (P16791 whole entry, the tested form may be a part): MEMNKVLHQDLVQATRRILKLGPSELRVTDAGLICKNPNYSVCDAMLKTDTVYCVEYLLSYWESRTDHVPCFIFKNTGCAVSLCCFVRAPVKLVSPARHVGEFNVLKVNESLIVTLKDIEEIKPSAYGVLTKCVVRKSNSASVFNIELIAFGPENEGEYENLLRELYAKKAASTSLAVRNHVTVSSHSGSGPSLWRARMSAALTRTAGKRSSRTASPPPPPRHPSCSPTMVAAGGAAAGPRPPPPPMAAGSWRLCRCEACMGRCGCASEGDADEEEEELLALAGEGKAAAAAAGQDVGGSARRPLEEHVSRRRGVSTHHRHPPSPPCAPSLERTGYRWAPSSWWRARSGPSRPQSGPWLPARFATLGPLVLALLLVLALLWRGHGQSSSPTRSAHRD

T2 sequence (P03185 whole entry): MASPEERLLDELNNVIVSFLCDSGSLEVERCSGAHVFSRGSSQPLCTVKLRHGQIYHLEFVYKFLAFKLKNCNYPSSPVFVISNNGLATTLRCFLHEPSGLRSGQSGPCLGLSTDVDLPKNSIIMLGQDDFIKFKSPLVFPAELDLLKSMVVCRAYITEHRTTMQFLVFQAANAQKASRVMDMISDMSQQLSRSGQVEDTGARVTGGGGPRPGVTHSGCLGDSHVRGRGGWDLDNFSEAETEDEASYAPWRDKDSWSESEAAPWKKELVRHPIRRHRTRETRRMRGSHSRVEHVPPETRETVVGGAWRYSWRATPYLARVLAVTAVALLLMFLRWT
T2 sequence (P0CK47 whole entry): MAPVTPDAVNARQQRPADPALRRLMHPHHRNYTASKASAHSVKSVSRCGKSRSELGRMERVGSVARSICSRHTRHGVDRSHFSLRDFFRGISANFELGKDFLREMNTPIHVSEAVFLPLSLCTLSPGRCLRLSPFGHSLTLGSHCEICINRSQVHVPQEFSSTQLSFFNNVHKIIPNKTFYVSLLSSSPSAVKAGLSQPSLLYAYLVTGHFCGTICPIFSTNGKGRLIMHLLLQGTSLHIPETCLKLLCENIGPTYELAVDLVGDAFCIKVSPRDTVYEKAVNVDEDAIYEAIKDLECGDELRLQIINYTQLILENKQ
T1 sequence (P10215 whole entry): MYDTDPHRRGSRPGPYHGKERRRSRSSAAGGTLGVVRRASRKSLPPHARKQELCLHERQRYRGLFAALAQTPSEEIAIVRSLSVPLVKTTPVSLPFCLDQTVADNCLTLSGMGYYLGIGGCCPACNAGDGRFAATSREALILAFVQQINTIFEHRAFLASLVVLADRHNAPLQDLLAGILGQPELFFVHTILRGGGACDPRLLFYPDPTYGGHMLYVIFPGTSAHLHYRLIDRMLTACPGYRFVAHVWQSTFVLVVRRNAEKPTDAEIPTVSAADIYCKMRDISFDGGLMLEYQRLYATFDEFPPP
T1 sequence (P10218 whole entry): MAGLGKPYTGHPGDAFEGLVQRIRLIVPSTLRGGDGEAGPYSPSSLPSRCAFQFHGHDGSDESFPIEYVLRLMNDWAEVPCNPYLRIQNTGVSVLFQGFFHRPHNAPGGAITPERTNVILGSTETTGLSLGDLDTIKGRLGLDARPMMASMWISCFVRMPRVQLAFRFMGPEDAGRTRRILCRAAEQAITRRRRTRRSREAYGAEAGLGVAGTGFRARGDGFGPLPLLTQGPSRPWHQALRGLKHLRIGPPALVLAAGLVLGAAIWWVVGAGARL

C=CC(=O)N1CCC[C@@H](n2nc(-c3ccc(Oc4ccccc4)cc3)c3c(N)ncnc32)C1 [ibrutinib]
EC50 (HCMV AD169 (WT); Human betaherpesvirus 5, AD169, 336 h, AD169 WT, +S+D, 14 d p.i., qPCR, read-out: EC50): 2.3 ± 1.8 µM | EC50 (HCMV AD169 (WT); Human betaherpesvirus 5, AD169, 336 h, AD169 WT, -S-D, 14 d p.i., qPCR, read-out: EC50): 2.5 ± 2.8 µM | EC50 (HCMV AD169 (WT); Human betaherpesvirus 5, AD169, parental HCMV AD169, qPCR-based assays, mean, read-out: mean EC50): 2.4 µM | EC50 (HCMV ∆UL50-ΣUL53; +S+D (Shield-1 1 µM, Dox 500 ng/mL), 14 d p.i., qPCR, two biological replicates): 4.8 ± 11.1 µM | EC50 (HCMV ∆UL50-ΣUL53; Human betaherpesvirus 5, 336 h, +S+D (Shield-1 1 µM, Dox 500 ng/mL), 14 d p.i., qPCR, two biological replicates): 4 ± 3.6 µM | EC50 (HCMV ∆UL50-ΣUL53; Human betaherpesvirus 5, 336 h, +S-D (no pUL50 induction), 14 d p.i., qPCR): > 32 µM | EC50 (HCMV ∆UL50-ΣUL53; Human betaherpesvirus 5, 336 h, -S+D (no pUL53 stabilization), 14 d p.i., qPCR): > 32 µM | EC50 (HCMV ∆UL50-ΣUL53; Human betaherpesvirus 5, 336 h, -S-D (neither core NEC protein), 14 d p.i., qPCR, two replicates): > 32 µM | EC50 (HCMV ∆UL50-ΣUL53; Human betaherpesvirus 5, read-out: mean EC50, ∆UL50-ΣUL53, +S+D, mean of replicates): 4.4 µM | core NEC nuclear rim localization (in words) [1]: did not show any similar alteration in nuclear rim localization | core NEC nuclear rim localization (in words) [2]: did not show any similar alteration in nuclear rim localization | effect on pUL97–cyclin H NanoBiT interaction (in words) [3]: inactive | inhibitory effect on NanoBiT interaction signal (in words) [4]: most prominent, dose-dependent reduction in the measured interaction signal

Reference: paper PMC10137179, “Assessment of Covalently Binding Warhead Compounds in the Validation of the Cytomegalovirus Nuclear Egress Complex as an Antiviral Target” (Cells, 2023)
